Laboratory results: PMC7587356, “High-Throughput Screening for Inhibitors of the SARS-CoV-2 Protease Using a FRET-Biosensor” (Molecules, 2020)
Counter-ions that a name gives are not always drawn. Like-named read-outs stand apart in the source and are kept apart here.

Molecular target: SARS-CoV-2 3CLpro (Severe acute respiratory syndrome coronavirus 2, UniProt P0DTD1)
Assay: biochemical
Format: biochemical
Set-up: Replicate_1 / Replicate_2 / mean / mean (LOPAC_screen_w_protease): unit not given here
Conditions: for inhibition at 5 µM: 4 h
[1] = sheet LOPAC_screen_w_protease, primary screen of LOPAC1280 at 5 µM with protease, mean of the two replicates
[2] = sheet LOPAC_screen_w_protease, primary screen of LOPAC1280 at 5 µM with protease, replicate 1
[3] = sheet LOPAC_screen_w_protease, primary screen of LOPAC1280 at 5 µM with protease, replicate 2
[4] = sheet LOPAC_screen_w_protease, primary screen at 5 µM, mean of two replicates
[5] = sheet LOPAC_screen_w_protease, primary screen at 5 µM, replicate 1
[6] = sheet LOPAC_screen_w_protease, primary screen at 5 µM, replicate 2
[7] = sheet LOPAC_screen_w_protease, LOPAC1280 primary screen at 5 µM, with protease, mean of the two replicates, read-out: mean
[8] = sheet LOPAC_screen_w_protease, LOPAC1280 primary screen at 5 µM, with protease, replicate 1, read-out: Replicate_1
[9] = sheet LOPAC_screen_w_protease, LOPAC1280 primary screen at 5 µM, with protease, replicate 2, read-out: Replicate_2

In the case of `CCC(=O)N1CCN(C(=O)c2ccccc2)CC1` [DM 235], the “mean (LOPAC_screen_w_protease)” value (LOPAC1280 primary screen with protease, 5 µM compound, mean of two replicates) is reported as 1.365, the “Replicate_1 (LOPAC_screen_w_protease)” value (LOPAC1280 primary screen with protease, 5 µM compound, replicate 1) is reported as 0.6823 and the “Replicate_2 (LOPAC_screen_w_protease)” value (LOPAC1280 primary screen with protease, 5 µM compound, replicate 2) is reported as 2.048.

With `CCCCCN(CCCCC)C(=O)C(CCC(=O)O)NC(=O)c1ccc(Cl)c(Cl)c1` (stereo not shown) [Lorglumide sodium] the inhibition at 5 µM (sheet LOPAC_screen_w_protease, primary screen of LOPAC1280 at 5 µM with protease, mean of the two replicates, read-out: mean) was 3.65%, the inhibition at 5 µM (sheet LOPAC_screen_w_protease, primary screen of LOPAC1280 at 5 µM with protease, replicate 1, read-out: Replicate_1) was 2.9% and the inhibition at 5 µM (sheet LOPAC_screen_w_protease, primary screen of LOPAC1280 at 5 µM with protease, replicate 2, read-out: Replicate_2) was 4.4%.

For `CCCCN1CCC(n2c(=O)[nH]c3ccccc32)CC1.O=C(O)C(=O)O` [NS 521 oxalate], the mean [1] was 3.504, the Replicate_1 [2] was 2.6467 and the Replicate_2 [3] was 4.361.

For `O=C(NCC1CCCCN1)c1cc(OCC(F)(F)F)ccc1OCC(F)(F)F` (stereo not shown) [Flecainide acetate], the inhibition at 5 µM (sheet LOPAC_screen_w_protease, LOPAC1280 at 5 µM, mean of two replicates, read-out: mean) was 1.01%, the inhibition at 5 µM (sheet LOPAC_screen_w_protease, LOPAC1280 at 5 µM, replicate 1, read-out: Replicate_1) was 2.84% and the inhibition at 5 µM (sheet LOPAC_screen_w_protease, LOPAC1280 at 5 µM, replicate 2, read-out: Replicate_2) was -0.814%.

With `OCCN1CCN(CCCN2c3ccccc3Sc3ccc(C(F)(F)F)cc32)CC1` [Fluphenazine dihydrochloride] the inhibition at 5 µM (LOPAC1280 primary screen with protease, 5 µM compound, replicate 1, read-out: Replicate_1 (LOPAC_screen_w_protease)) was 4.18%, the inhibition at 5 µM (LOPAC1280 primary screen with protease, 5 µM compound, replicate 2, read-out: Replicate_2 (LOPAC_screen_w_protease)) was -0.136% and the “mean (LOPAC_screen_w_protease)” value (LOPAC1280 primary screen with protease, 5 µM compound, mean of the two replicates) was 2.023.

With `CCCn1c(=O)c2[nH]c(-c3ccc(S(=O)(=O)O)cc3)nc2n(CCC)c1=O` [1,3-Dipropyl-8-p-sulfophenylxanthine] the “mean (LOPAC screen with protease)” value [4] was 7.8949, the “Replicate_1 (LOPAC screen with protease)” value [5] was 7.582 and the “Replicate_2 (LOPAC screen with protease)” value [6] was 8.208.

For `CC(C)(C)NCC(O)c1cc(O)cc(O)c1.CC(C)(C)NCC(O)c1cc(O)cc(O)c1.O=S(=O)(O)O` (stereo not shown) [Terbutaline hemisulfate], the mean (sheet LOPAC_screen_w_protease, LOPAC1280 at 5 µM, mean of two replicates) was 1.161, the Replicate_1 (sheet LOPAC_screen_w_protease, LOPAC1280 at 5 µM, replicate 1) was -0.3816 and the Replicate_2 (sheet LOPAC_screen_w_protease, LOPAC1280 at 5 µM, replicate 2) was 2.703.

With `CC(N)=NCc1cccc(CN)c1.Cl.Cl` [1400W dihydrochloride] the mean (sheet LOPAC_screen_w_protease, LOPAC1280 primary screen at 5 µM, with protease, mean of the two replicates) was 0.5066, the Replicate_1 (sheet LOPAC_screen_w_protease, LOPAC1280 primary screen at 5 µM, with protease, replicate 1) was 0.5348 and the Replicate_2 (sheet LOPAC_screen_w_protease, LOPAC1280 primary screen at 5 µM, with protease, replicate 2) was 0.4785.

For `COc1ccc2c(c1O)-c1cccc3c1[C@@H](C2)N(C)CC3` [R(−)-apocodeine, reference compound], the “inhibition of 3CLpro in the primary screen” value (5 µM) was 6%.

`Cc1cc(NC(=O)Nc2ccc3c(ccn3C)c2)sn1` [SB 204741] was tested, and the mean (sheet LOPAC_screen_w_protease, primary screen with protease, 5 µM, mean of two replicates) was 0.4215, the Replicate_1 (sheet LOPAC_screen_w_protease, primary screen with protease, 5 µM, replicate 1) was 0.3793 and the Replicate_2 (sheet LOPAC_screen_w_protease, primary screen with protease, 5 µM, replicate 2) was 0.4638.

`O=C(Nc1cccc(C(=O)Nc2ccc(S(=O)(=O)O)c3cc(S(=O)(=O)O)cc(S(=O)(=O)O)c23)c1)Nc1cccc(C(=O)Nc2ccc(S(=O)(=O)O)c3cc(S(=O)(=O)O)cc(S(=O)(=O)O)c23)c1` [NF 023, reference compound] gave a mean (sheet LOPAC_screen_w_protease, LOPAC1280 primary screen with protease, 5 µM compound, mean of the two replicates) of 6.11, a Replicate_1 (sheet LOPAC_screen_w_protease, LOPAC1280 primary screen with protease, 5 µM compound, replicate 1) of 5.845 and a Replicate_2 (sheet LOPAC_screen_w_protease, LOPAC1280 primary screen with protease, 5 µM compound, replicate 2) of 6.375.

`CC1CNCCN1S(=O)(=O)c1cccc2cnccc12.Cl.Cl` (stereo not shown) was tested, and the “mean (LOPAC screen with protease)” value [4] was 12.1111, the “Replicate_1 (LOPAC screen with protease)” value [5] was 12.4365 and the “Replicate_2 (LOPAC screen with protease)” value [6] was 11.7856.

For `C1CNCCN1.COc1cc(C(O)CO)ccc1O.COc1cc(C(O)CO)ccc1O` (stereo not shown) [MHPG piperazine], the Replicate_1 was 4.5396, the Replicate_2 was 3.9909 and the mean was 4.265.

`O=c1c(O)c(-c2ccc(O)cc2O)oc2cc(O)cc(O)c12` [Morin] showed an inhibition at 5 µM (read-out: Replicate_1) of 6.85%, an inhibition at 5 µM (read-out: Replicate_2) of 5.63% and an inhibition at 5 µM (read-out: mean) of 6.24%.

In the case of `Cc1nc2ccccn2c(=O)c1CCN1CCC(C(=O)c2ccc(F)cc2)CC1` [Pirenperone], the inhibition at 5 µM [7] is reported as 0.688%, the inhibition at 5 µM [8] is reported as 0.852% and the inhibition at 5 µM [9] is reported as 0.525%.

With `O=c1c2ccccc2nc2n1CCc1c-2[nH]c2ccccc12` [Rutaecarpine] the inhibition at 5 µM [7] was 0.598%, the inhibition at 5 µM [8] was 1.54% and the inhibition at 5 µM [9] was -0.348%.

`Cn1ccc2cc3c(cc21)CCN3C(=O)Nc1cccnc1` [SB 206553 hydrochloride] gave a mean (sheet LOPAC_screen_w_protease, primary screen with protease, compound at 5 µM, mean of two replicates) of 2.821, a Replicate_1 (sheet LOPAC_screen_w_protease, primary screen with protease, compound at 5 µM, replicate 1) of 3.909 and a Replicate_2 (sheet LOPAC_screen_w_protease, primary screen with protease, compound at 5 µM, replicate 2) of 1.733.

For `NC[C@@H]1O[C@H](O[C@H]2[C@@H](O)[C@H](O[C@@H]3[C@@H](O)[C@H](N)C[C@H](N)[C@H]3O[C@H]3O[C@H](CO)[C@@H](O)[C@H](O)[C@H]3N)O[C@@H]2CO)[C@H](N)[C@@H](O)[C@@H]1O` [Paromomycin sulfate], the inhibition at 5 µM (sheet LOPAC_screen_w_protease, primary screen at 5 µM, mean of two replicates, read-out: mean (LOPAC screen with protease)) was 7.62%, the inhibition at 5 µM (sheet LOPAC_screen_w_protease, primary screen at 5 µM, replicate 1, read-out: Replicate_1 (LOPAC screen with protease)) was 8.4% and the inhibition at 5 µM (sheet LOPAC_screen_w_protease, primary screen at 5 µM, replicate 2, read-out: Replicate_2 (LOPAC screen with protease)) was 6.83%.

For `Cc1nc2sccn2c(=O)c1CCN1CCC(=C(c2ccccc2)c2ccc(F)cc2)CC1` [Diacylglycerol kinase inhibitor I], the mean [1] was 3.623, the Replicate_1 [2] was 4.4123 and the Replicate_2 [3] was 2.833.
